These results are taken from US5734081A, “Arylthio compounds” (Warner-Lambert Company, priority 1995, dated 1998).

Some results are limits rather than exact numbers.

What all share (format): cell-based
Data set [1] in a line: H9 cell cytotoxicity (XTT assay, uninfected cells). Conditions: human, drug alone, read-out: IC50 (Inhibitory Concentration where drug alone inhibits cell growth). How it is done:
The H9 T-cell line is batch infected with HIV virus at an M0I of 0.01. After 2 hours absorption, the cells are washed, resuspended in RPMI-1640/10% fetal calf serum, and seeded at […] of a 96-well plate. A duplicate plate of uninfected H9 cells is prepared for the cytotoxicity assay. Drugs are serially diluted 1/3.16 in DMSO, transferred to media at an 8× concentration, and then added to the cultures in triplicate. The final DMSO concentration of 0.002 (0.2%).
Viral production is measured by RT assay and cytotoxicity is measured by XTT assay at 7 days post-infection. The RT assay is performed as a modification of Borroto-Esoda and Boone, J. Virol., 1991;65:1952-1959 and quantitated using a Molecular Dynamics Phosphoimager with Imagequant software. The XTT assay is performed as a modification of Roehm, et al., J. Immuno. Methods., 1991;142:257-265 and quantitated using a molecular Devices Thermomax plate reader with Softmax software.
Data is electronically transferred to a Microsoft Excell spreadsheet for analysis. The RT assay values equivalent to 50% and 90% inhibition of virus production are calculated from the untreated controls. The concentrations of inhibitor required to produce these values (IC50 and IC90) are interpolated from data points flanking these RT activities. The XTT assay values equivalent to 50% cytotoxicity are calculated from the untreated controls. The concentrations of inhibitor required to produce this value are interpolated from data points flanking these XTT values.
In general terms: Formazan colour is commonly taken as a measure of viable cells.

Data set [2] deals with HIV-1. The data set can be described thus: CEM cell assay, anti-HIV-1 activity. Conditions: Human immunodeficiency virus 1, CCRF-CEM, HIV-1, 6 or 7 days, read-out: EC50 (Effective Concentration which protects cells from viral cytopathic effects). Put shortly: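 CEM T4 lymphocytes infected with HIV at virus:cell ratio ~0.05, then treated with half-log10 dilutions of compound from DMSO stock and incubated 6 or 7 days at 37° in 5% CO2. Protection from virus-induced cell killing was read by XTT formazan absorbance and microscopy versus drug-treated noninfected cells and untreated controls.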
On the technique in general: Damage to the host cells serves as the signal in cytopathic effect assays.

Data set [3] is described as follows: CEM cell growth inhibition (XTT, noninfected cells). The settings on record: human, CEM Cell Assay, drug alone, read-out: IC50 (Inhibitory Concentration where drug alone inhibits cell growth). Put shortly:
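Uninfected CEM T4 lymphocytes were run alongside HIV-infected cultures. Compound in DMSO was diluted 1:200 in medium, then in half-log10 steps, and added to an equal volume of cells.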

Data set [4] has as its system HIV-1RF. The data set can be described thus: Anti-HIV activity, HIV-1RF in CEM cells. Conditions: Human immunodeficiency virus 1, CCRF-CEM; CEM, HIV-1RF; read-out: EC50. How it is done:
(§1) Yet another test system employed to determine antiviral activity is called the CEM cell assay.
(§2) T4 lymphocytes (CEM cell line) are exposed to HIV at a virus to cell ratio approximately 0.05, and plated along with noninfected control cells in 96-well microliter plates.
(§3) The candidate agent is dissolved in dimethyl sulfoxide (unless otherwise noted), then diluted 1:200 in cell culture medium. Further dilutions (half-log10) are prepared before adding to an equal volume of medium containing either infected or noninfected cells. Cultures are incubated at 37° in a 5% carbon dioxide atmosphere for 6 or 7 days. The tetrazolium salt, XTT, is added to all wells, and cultures are incubated to allow formazan color development by viable cells (J. National Cancer Institute, 1989;81:577-586). Individual wells are analyzed spectrophotometrically to quantitate formazan production, and in addition are viewed microscopically for detection of viable cells confirmation of protective activity.
(§4) Drug-tested virus-infected cells are compared with drug-treated noninfected cells and with other appropriate controls (untreated infected and untreated noninfected cells, drug-contain wells without cells, etc.) on the same plate. Data are reviewed in comparison with other tests done at the same time and a determination about activity is made.
(§5) The compounds of the invention were also evaluated against various other HIV strains and cell lines utilizing the assay methodology described above. The compounds were additionally evaluated against clinical isolates of HIV strains.

Data set [5] concerns HIV-1IIIb. Briefly: Anti-HIV activity, HIV-1IIIb in MT-2 cells. The settings on record: Human immunodeficiency virus 1, MT2; MT-2, HIV-1IIIb. Here is the method:
as §5

Data set [6] deals with HIV-1A17. Briefly: Anti-HIV activity, HIV-1A17 in MT-4 cells. The settings on record: Human immunodeficiency virus 1, MT4. Here is the method: as §5
Data set [7] deals with HIV-1N119. Briefly: Anti-HIV activity, HIV-1N119 in CEM cells. The settings on record: Human immunodeficiency virus 1, CCRF-CEM. How it is done:
as §1, §2, §3, §4, §5

For data set [8], the system named is SIV. The data set can be described thus: Antiviral activity, SIV in CEM cells. Conditions: Simian immunodeficiency virus, CCRF-CEM, read-out: EC50.
Data set [9] deals with HIV-1IIIb. The data set can be described thus: Anti-HIV activity, HIV-1IIIb in AA5 cells. The settings on record: Human immunodeficiency virus 1; AA5, HIV-1IIIb. How it is done:
as §5

In data set [10] the test system is HIV-1VIHU. Briefly: Anti-HIV activity, clinical isolate HIV-1VIHU in PBL. The settings on record: Human immunodeficiency virus 1. Here is the method: as §5
Data set [11] concerns HIV-1BAKI. The data set can be described thus: Anti-HIV activity, clinical isolate HIV-1BAKI in PBL. How it is done:
as §5

Data set [12] concerns HIV-1WOME. The data set can be described thus: Anti-HIV activity, clinical isolate HIV-1WOME in PBL. The settings on record: Human immunodeficiency virus 1. How it is done: as §5
[13] abbreviates: Human immunodeficiency virus 1, PBL.

On to `NS(=O)(=O)c1ccc(NC(=O)c2ccccc2SSc2ccccc2C(=O)Nc2ccc(S(N)(=O)=O)cc2)cc1` [Example 1], for which the CC50 at 168 h in data set [1] was found to be 36 µM. Further, the EC50 is 2.9 µM in data set [2]; 2.3 µM in [4]; 2.6 µM in data set [5]; 0.6 µM in data set [6]; 2.2 µM in data set [7]; 14.6 µM in data set [8]. For the same compound, the EC50 was found to be 0.9 µM in data set [9]; 3.6 µM in data set [10]; 0.3 µM in data set [11] (setting [13]); 0.25 µM in [11] (PBL); 4 µM in data set [12]. Moreover, in [3], the CC50 is > 120 µM.

With `CC(=O)Nc1ccc(SSc2ccc(NC(C)=O)cc2C(N)=O)c(C(N)=O)c1` [Example 9, 2,2'-Dithiobis(5-acetylamino)benzamide], the CC50 at 168 h in [1] was > 100 µM. The EC50 amounted to 5.2 µM in data set [2]; 0.4 µM in data set [4]; 9.4 µM in data set [5]; 2.4 µM in [6]; 2.3 µM in data set [7]; 2.1 µM in [8]. The EC50 in [9] came out at 3.5 µM; in data set [10], 5.2 µM; in data set [11] (setting [13]), 1.8 µM; in data set [12], 5.7 µM. Moreover, the CC50 in data set [3] was > 120 µM.
